One data set relates to CD40 mRNA. The data set is described as follows: CD40 mRNA by real-time PCR in SK-N-MC. The format is cell-based, human. The following applies: MC cells, at 24 hours. On the technique in general: Real-time PCR tracks product formation cycle by cycle.
For data set [1], the system named is class II transactivator (CIITA) mRNA. The data set is described as follows: CIITA mRNA by standard PCR and real-time PCR in human cell lines JAR and SK-N-MC. The following applies: for CIITA mRNA fold change: MC cells, real time PCR up to 60 cycles, 100 nM TSA 24 hr, NaBu 1 mM 48 hr. Format: cell-based. The procedure:
(§1) To determine the effect of DAIs on HLA-DRα mRNA, cytoplasmic RNA was isolated from untreated and treated human trophoblast cell line JAR using standard techniques (RNeasy System from Qiagen). Standard PCR was performed using primers for DR and CIITA (Murphy et al., 1998, Reprod Dev., Chin et al., 1994, Immunity 1:687-697). Other primers used included human and mouse GAPDH (Clontech) and forward primer 5′-[…]-3′ (SEQ ID NO:25) and reverse primer 5′-[…]-3′ (SEQ ID NO:26) for mouse CIITA. PCR products were amplified with GOLD Taq for 10 min at 95° C., then 95° C. for 30 sec, 60° C. for 60 sec (25-45 cycles), then an extension at 60° C. for 10 min.
Oligonucleotide primers and TaqMan 5′-6-FAM and 3′-TAMRA-labeled probes were synthesized in the RPCI Biopolymer Facility. Primer and probe sequences are listed under Sequence Listing and also in FIG. 9. Sequences were designed using standard software (PrimerExpress software, PE Biosystems) except for human GAPDH.
Realtime PCR reactions contained TaqMan Universal PCR Master Mix (PE Biosystems), primers at 300 nM, and probes at optimal concentrations (150-225 nM depending on gene). Reactions were carried out on an ABI PRISM 7700 Sequence Detection System (PE Biosystems). Cycling conditions were 50° C. for 2 min, 95° C. for 10 min, then 60 cycles of 95° C. for 15 sec, 60° C. for 1 min. PCR samples were run in triplicate. The detection system and quantitative PCR was carried out as described by Williamson et al. (1995, Genet Res. 65:83-93). The threshold cycle number CT corresponded to the cycle number, at which the fluorescent emission reaches 10 standard deviations above the mean fluorescent emission, measured during the early ‘baseline’ cycles of the PCR. The CT values for triplicates were averaged and normalized to GAPDH levels. […] Assuming reverse transcription efficiencies were approximately the same for each sample, relative amounts of mRNA using the comparative CT method. Fold changes in mRNA levels were calculated as 2^x where x=the difference between normalized CT values of the control and experimental samples.
[…] RNA was isolated and real time quantitative RT-PCR was carried out. The fold increase in mRNA over the control was calculated.

The subject of another data set is CIITA mRNA. The data set is described as follows: CIITA mRNA by RT-PCR and real-time PCR in mouse tumor cells Colon 26 and J558. The format is cell-based. The following applies: for CIITA fold increase / expression of CIITA: Colon 26; for CIITA fold increase: real-time PCR; for expression of CIITA: standard RT-PCR at 35 cycles; for CIITA mRNA activation: titration with different concentrations of TSA for 12 hours, RT-PCR and real-time PCR. The procedure:
as §1
In order to obtain more quantitative information on fold changes in DR and CIITA after treatment with the deacetylase inhibitors, a real time fluorescence technique capable of quantitating low copy numbers of transcripts was carried out as follows. Oligonucleotide primers and TaqMan 5′-6-FAM and 3′-TAMRA-labeled probes were synthesized in the RPCI Biopolymer Facility. Primer and probe sequences are listed under Sequence Listing and also in FIG. 9. Sequences were designed using standard software (PrimerExpress software, PE Biosystems) except for human GAPDH.
Realtime PCR reactions contained TaqMan Universal PCR Master Mix (PE Biosystems), primers at 300 nM, and probes at optimal concentrations (150-225 nM depending on gene). Reactions were carried out on an ABI PRISM 7700 Sequence Detection System (PE Biosystems). Cycling conditions were 50° C. for 2 min, 95° C. for 10 min, then 60 cycles of 95° C. for 15 sec, 60° C. for 1 min. PCR samples were run in triplicate. The detection system and quantitative PCR was carried out as described by Williamson et al. (1995, Genet Res. 65:83-93). The threshold cycle number CT corresponded to the cycle number, at which the fluorescent emission reaches 10 standard deviations above the mean fluorescent emission, measured during the early ‘baseline’ cycles of the PCR. The CT values for triplicates were averaged and normalized to GAPDH levels. […] In such cases, in order to calculate a minimum fold change for other samples in the same group, the CT value was arbitrarily set at 40. […] Assuming reverse transcription efficiencies were approximately the same for each sample, relative amounts of mRNA using the comparative CT method. Fold changes in mRNA levels were calculated as 2^x where x=the difference between normalized CT values of the control and experimental samples.
To determine if the effect of DAIs on MHC class II was manifested in other tumors and in different species, the effect of TSA was tested on four commonly used mouse tumor models: the SaI fibrosarcoma, the Colon 26 adenocarcinoma, the J558 plasmacytoma and the P815 mastocytoma. TSA induced class II in all four mouse tumors examined, while the effects of IFNγ were variable (FIG. 4). Data presented for each cell line represents optimal incubation time and concentration of TSA and is compared with 100 U/ml of IFNγ at the same time point. Numbers over bars represents fold changes. […] Colon 26 and J558 that differed strikingly in their reactivity to IFNγ were selected for further evaluation. RT-PCR and real time PCR was used to examine induction of CIITA and IAα by TSA and IFNγ. A20, a constitutively positive B cell line was used as a positive control. The results are shown in FIGS. 5A-D. The numbers over bars represent fold changes. […] Since the classical IFNγ inducible genes IRF-1 and GBP as well as MHC class I mRNA were not induced by IFNγ in J558 (data not shown), this cell line may have a signaling defect in the IFNγ pathway. Unexpectedly however, and unlike either the MC or Colon 26 cells, TSA induced both CIITA (102-fold) and Iα (537-fold) in J558 as shown in FIGS. 5B and 5D.

The mark [2] stands for this setting: SK-N-MC, routine RT-PCR at 35 cycles, 100 nM TSA 24 hours, 1 mM NaBu 48 hours, IFNγ.

For `CC(/C=C/C(=O)NO)=C\[C@@H](C)C(=O)c1ccc(N(C)C)cc1` [TSA, Trichostatin A], the “CD40 mRNA fold increase” value in the data set on CD40 mRNA came to 12 fold. Also, in data set [1] (JAR, standard PCR at 35 cycles, 100 nM or 250 nM TSA or 1 mM sodium butyrate), the CIITA transcription result is reported as “undetectable”. For the same compound, the “CIITA mRNA fold change” value in data set [1] (IFNγ) is “no increase”. For the same compound, the CIITA transcription entry in data set [1] (setting [2]) is listed as “undetectable”. Further, in the data set on CIITA mRNA, the CIITA fold increase entry is reported as “absence” and the “expression of CIITA” value is given as “not detected”. Besides, in the data set with CIITA mRNA (J558, RT-PCR and real-time PCR (FIGS. 5B and 5D)), the CIITA fold induction is reported as 102 fold. The “CIITA mRNA activation” value in the data set with CIITA mRNA (J558) is given as “induced”.
As for “IFNγ: gamma-interferon, cytokine used as comparator at 100 U/ml”, the “CD40 mRNA fold increase” value with CD40 mRNA was found to be 5 fold. Besides, the “CIITA mRNA fold change” value in data set [1] (IFNγ) is 4 fold. The CIITA transcription entry in data set [1] (setting [2]) is “not detected”. In addition, in the data set with CIITA mRNA, the CIITA fold increase was found to be 20 fold and the “expression of CIITA” value was “induced”. For the same compound, the “CIITA mRNA activation” value in the data set with CIITA mRNA (J558) is “failed to activate”.

The record behind these values is patent US6518012B1, “Method for regulating the expression of MHC antigens and CD40 by inhibitors of histone deacetylation” (Health Research, Inc., priority 1999, dated 2003).
